Test results from US20130210817A1, “METHODS OF CONTROLLING NEONICOTINOID RESISTANT APHIDS” (SYNGENTA CROP PROTECTION LLC, priority 2010, published 2013).

Tests used:
[1] = tested on: neonicotinoid insecticide resistant aphid strain; format: in vivo; details: mixed age aphids on chinese cabbage leaf discs, Potter Tower spray, mortality 72 hours after treatment; resistant strain from peach orchard, Avignon region, 2009
Experimental: (§1) The following bioassay methodology was utilized to generate the data included in the table:
(§2) 5 cm leaf discs were taken from fully expanded chinese cabbage leaves and placed with the underside facing upwards onto water agar in 5 cm Petri dishes. The leaf discs are infested with between 30 and 40 mixed age aphids 24 hours prior to insecticide treatment. The leaf surface is sprayed with the appropriate test solutions in a Burkhard Potter Tower at an approximate water volume of 450 l/ha. Test containers are stored at 21 °C, 60% RH and 16:8 light/dark. Aphids were assessed for mortality 72 hours after treatment.

[2] = tested on: neonicotinoid insecticide susceptible strain 4106A; format: in vivo; details: mixed age aphids on chinese cabbage leaf discs, Potter Tower spray, mortality 72 hours after treatment; susceptible strain 4106A (Rothamsted Research)
Experimental: as §1, §2

SMILES: CN/C(=N/CC1CCOC1)N[N+](=O)[O-] (centres unmarked) [dinotefuran]
- LC50 with 95% confidence limit (ppm) resistant strain [1]: 538 (435-696) ppm
- LC50 with 95% confidence limit (ppm) susceptible strain [2]: 9.95 (8.21-12.5) ppm

SMILES: CCN(Cc1ccc(Cl)nc1)/C(=C/[N+](=O)[O-])NC [nitenpyram]
- LC50 with 95% confidence limit (ppm) resistant strain [1]: 237 (93.7-3566) ppm
- LC50 with 95% confidence limit (ppm) susceptible strain [2]: 1.26 (1.03-1.61) ppm

SMILES: N#C/N=C1\SCCN1Cc1ccc(Cl)nc1 [thiacloprid]
- LC50 with 95% confidence limit (ppm) resistant strain [1]: >1000 ppm
- LC50 with 95% confidence limit (ppm) susceptible strain [2]: 0.38 (0.34-0.42) ppm

SMILES: CC(=O)N1C(=O)N(NCc2cccnc2)Cc2cc(C(F)(C(F)(F)F)C(F)(F)F)ccc21 [pyrifluquinazon, 1-acetyl-1,2,3,4-tetrahydro-3-[(3-pyridylmethyl)amino]-6-[1,2,2,2-tetrafluoro-1-(trifluoromethyl)ethyl]quinazolin-2-one]
- LC50 with 95% confidence limit (ppm) resistant strain [1]: 0.09 (0.06-0.13) ppm
- LC50 with 95% confidence limit (ppm) susceptible strain [2]: 0.17 (0.13-0.22) ppm

SMILES: C/C(=N\C#N)N(C)Cc1ccc(Cl)nc1 [acetamiprid]
- LC50 with 95% confidence limit (ppm) resistant strain [1]: 49.3 (35.2-72.0) ppm
- LC50 with 95% confidence limit (ppm) susceptible strain [2]: 0.55 (0.51-0.59) ppm

SMILES: CN1COCN(Cc2cnc(Cl)s2)/C1=N\[N+](=O)[O-] [thiamethoxam]
- LC50 with 95% confidence limit (ppm) resistant strain [1]: 148 (128-172) ppm
- LC50 with 95% confidence limit (ppm) susceptible strain [2]: 0.35 (0.3-0.41) ppm

SMILES: CN/C(=N\[N+](=O)[O-])NCc1cnc(Cl)s1 [clothianidin]
- LC50 with 95% confidence limit (ppm) resistant strain [1]: 904 (478-3616) ppm
- LC50 with 95% confidence limit (ppm) susceptible strain [2]: 0.33 (0.28-0.38) ppm
